Reference: US9085555B2, “Complement pathway modulators and uses thereof” (priority 2011, dated 2015)

These compounds were tested against Factor D (Homo sapiens (Human), UniProt P00746) (assay: biochemical). Conditions: read-out: IC50.
Sequence of Factor D (P00746 26-253): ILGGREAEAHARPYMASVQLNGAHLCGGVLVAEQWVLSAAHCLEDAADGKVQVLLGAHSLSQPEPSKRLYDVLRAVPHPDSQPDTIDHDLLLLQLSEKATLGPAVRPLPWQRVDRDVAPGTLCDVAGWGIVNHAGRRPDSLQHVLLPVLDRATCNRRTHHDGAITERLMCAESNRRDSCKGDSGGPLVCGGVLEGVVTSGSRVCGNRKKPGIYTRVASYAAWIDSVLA
Format: biochemical
`NC(=O)n1cc(NC(=O)N2C[C@@H](N)C[C@H]2C(=O)NCc2ccccc2O)c2ccccc21` [Example 48, (2S,4S)-4-Amino-pyrrolidine-1,2-dicarboxylic acid 1-[(1-carbamoyl-1H-indol-3-yl)-amide] 2-(2-hydroxy-benzylamide)] was tested, and the IC50 was 7.5 µM.
For `NC(=O)n1cc(NC(=O)N2C[C@@H](N)C[C@H]2C(=O)NCc2ccccc2F)c2ccccc21` [Example 49, (2S,4S)-4-Amino-pyrrolidine-1,2-dicarboxylic acid 1-[(1-carbamoyl-1H-indol-3-yl)-amide] 2-(2-fluoro-benzylamide)], the IC50 was 0.9 µM.
`NC(=O)n1cc(NC(=O)N2C[C@@H](N)C[C@H]2C(=O)NCc2ccccc2Cl)c2ccccc21` [Example 50, (2S,4S)-4-Amino-pyrrolidine-1,2-dicarboxylic acid 1-[(1-carbamoyl-1H-indol-3-yl)-amide] 2-(2-chloro-benzylamide)] showed an IC50 of 21.6 µM.
For `NC(=O)n1cc(NC(=O)N2C[C@@H](N)C[C@H]2C(=O)NCc2ccccc2-c2ccccc2)c2ccccc21` [Example 51, (2S,4S)-4-Amino-pyrrolidine-1,2-dicarboxylic acid 2-[(biphenyl-2-ylmethyl)-amide] 1-[(1-carbamoyl-1H-indol-3-yl)-amide]], the IC50 was 8.5 µM.
For `NC(=O)n1cc(NC(=O)N2C[C@@H](N)C[C@H]2C(=O)NCc2cccc(F)c2F)c2ccccc21` [Example 52, (2S,4S)-4-Amino-pyrrolidine-1,2-dicarboxylic acid 1-[(1-carbamoyl-1H-indol-3-yl)-amide] 2-(2,3-difluoro-benzylamide)], the IC50 was 0.4 µM.
Work on `COc1ccc(Cl)cc1CNC(=O)[C@@H]1C[C@H](N)CN1C(=O)Nc1cn(C(N)=O)c2ccccc12` [Example 53, (2S,4S)-4-Amino-pyrrolidine-1,2-dicarboxylic acid 1-[(1-carbamoyl-1H-indol-3-yl)-amide] 2-(5-chloro-2-methoxy-benzylamide)] yielded an IC50 of 1.75 µM.
With `COc1ccc(CNC(=O)[C@@H]2C[C@H](N)CN2C(=O)Nc2cn(C(N)=O)c3ccccc23)cc1Cl` [Example 54, (2S,4S)-4-Amino-pyrrolidine-1,2-dicarboxylic acid 1-[(1-carbamoyl-1H-indol-3-yl)-amide] 2-(3-chloro-4-methoxy-benzylamide)] the IC50 was 1.85 µM.
With `NC(=O)n1cc(NC(=O)N2C[C@@H](N)C[C@H]2C(=O)NCc2cc(Cl)ccc2F)c2ccccc21` [Example 55, (2S,4S)-4-Amino-pyrrolidine-1,2-dicarboxylic acid 1-[(1-carbamoyl-1H-indol-3-yl)-amide] 2-(5-chloro-2-fluoro-benzylamide)] the IC50 was 0.125 µM.
`NC(=O)n1cc(NC(=O)N2C[C@@H](N)C[C@H]2C(=O)NCc2ccc(F)c(Cl)c2)c2ccccc21` [Example 56, (2S,4S)-4-Amino-pyrrolidine-1,2-dicarboxylic acid 1-[(1-carbamoyl-1H-indol-3-yl)-amide] 2-(3-chloro-4-fluoro-benzylamide)] was tested, and the IC50 was 1.95 µM.
Compound `Cc1c(Cl)cccc1CNC(=O)[C@@H]1C[C@H](N)CN1C(=O)Nc1cn(C(N)=O)c2ccccc12` [Example 57, (2S,4S)-4-Amino-pyrrolidine-1,2-dicarboxylic acid 1-[(1-carbamoyl-1H-indol-3-yl)-amide] 2-(3-chloro-2-methyl-benzylamide)] has an IC50 of 1.35 µM.
Work on `Cc1ccc(Cl)cc1CNC(=O)[C@@H]1C[C@H](N)CN1C(=O)Nc1cn(C(N)=O)c2ccccc12` [Example 58, (2S,4S)-4-Amino-pyrrolidine-1,2-dicarboxylic acid 1-[(1-carbamoyl-1H-indol-3-yl)-amide] 2-(5-chloro-2-methyl-benzylamide)] yielded an IC50 of 0.35 µM.
With `Cc1ccc(CNC(=O)[C@@H]2C[C@H](N)CN2C(=O)Nc2cn(C(N)=O)c3ccccc23)cc1Cl` [Example 59, (2S,4S)-4-Amino-pyrrolidine-1,2-dicarboxylic acid 1-[(1-carbamoyl-1H-indol-3-yl)-amide] 2-(3-chloro-4-methyl-benzylamide)] the IC50 was 6.4 µM.
Compound `NC(=O)n1cc(NC(=O)N2C[C@@H](N)C[C@H]2C(=O)NCc2cc(Cl)cc(Cl)c2)c2ccccc21` [Example 60, (2S,4S)-4-Amino-pyrrolidine-1,2-dicarboxylic acid 1-[(1-carbamoyl-1H-indol-3-yl)-amide] 2-(3,5-dichloro-benzylamide)] has an IC50 of 0.8 µM.
For `NC(=O)n1cc(NC(=O)N2C[C@@H](N)C[C@H]2C(=O)NCc2ccc(Cl)c(Cl)c2)c2ccccc21` [Example 61, (2S,4S)-4-Amino-pyrrolidine-1,2-dicarboxylic acid 1-[(1-carbamoyl-1H-indol-3-yl)-amide] 2-(3,4-dichloro-benzylamide)], the IC50 was 7.1 µM.
Compound `NC(=O)n1cc(NC(=O)N2C[C@@H](N)C[C@H]2C(=O)NCc2c(F)ccc(Cl)c2F)c2ccccc21` [Example 62, (2S,4S)-4-Amino-pyrrolidine-1,2-dicarboxylic acid 1-[(1-carbamoyl-1H-indol-3-yl)-amide] 2-(3-chloro-2,6-difluoro-benzylamide)] has an IC50 of 0.085 µM.
`NC(=O)n1cc(NC(=O)N2C[C@@H](N)C[C@H]2C(=O)NCc2ccc3ccccc3c2)c2ccccc21` [Example 63, (2S,4S)-4-Amino-pyrrolidine-1,2-dicarboxylic acid 1-[(1-carbamoyl-1H-indol-3-yl)-amide] 2-[(naphthalen-2-ylmethyl)-amide]] showed an IC50 of 11.4 µM.
`NC(=O)n1cc(NC(=O)N2C[C@@H](N)C[C@H]2C(=O)NCc2cccc3ccccc23)c2ccccc21` [Example 64, (2S,4S)-4-Amino-pyrrolidine-1,2-dicarboxylic acid 1-[(1-carbamoyl-1H-indol-3-yl)-amide] 2-[(naphthalen-1-ylmethyl)-amide]] gave an IC50 of 22.4 µM.
`Cc1cnc(CNC(=O)[C@@H]2C[C@H](N)CN2C(=O)Nc2cn(C(N)=O)c3ccccc23)s1` [Example 65, (2S,4S)-4-Amino-pyrrolidine-1,2-dicarboxylic acid 1-[(1-carbamoyl-1H-indol-3-yl)-amide] 2-[(5-methyl-thiazol-2-ylmethyl)-amide]] showed an IC50 of 13.1 µM.
`NC(=O)n1cc(NC(=O)N2C[C@@H](N)C[C@H]2C(=O)NCc2ccc(Cl)s2)c2ccccc21` [Example 66, (2S,4S)-4-Amino-pyrrolidine-1,2-dicarboxylic acid 1-[(1-carbamoyl-1H-indol-3-yl)-amide] 2-[(5-chloro-thiophen-2-ylmethyl)-amide]] showed an IC50 of 0.065 µM.
Work on `Cc1ccnc(CNC(=O)[C@@H]2C[C@H](N)CN2C(=O)Nc2cn(C(N)=O)c3ccccc23)c1` [Example 67, (2S,4S)-4-Amino-pyrrolidine-1,2-dicarboxylic acid 1-[(1-carbamoyl-1H-indol-3-yl)-amide] 2-[(4-methyl-pyridin-2-ylmethyl)-amide]] yielded an IC50 of 22.2 µM.
With `C[C@H](NC(=O)[C@@H]1C[C@H](N)CN1C(=O)Nc1cn(C(N)=O)c2ccccc12)c1cccc(Cl)c1` [Example 68, (2S,4S)-4-Amino-pyrrolidine-1,2-dicarboxylic acid 1-[(1-carbamoyl-1H-indol-3-yl)-amide] 2-{[(S)-1-(3-chloro-phenyl)-ethyl]-amide}] the IC50 was 15.1 µM.
`C[C@@H](NC(=O)[C@@H]1C[C@H](N)CN1C(=O)Nc1cn(C(N)=O)c2ccccc12)c1cccc(Cl)c1` [Example 69, (2S,4S)-4-Amino-pyrrolidine-1,2-dicarboxylic acid 1-[(1-carbamoyl-1H-indol-3-yl)-amide] 2-{[(R)-1-(3-chloro-phenyl)-ethyl]-amide}] showed an IC50 of 1.05 µM.
`NC(=O)n1cc(NC(=O)N2C[C@@H](N)C[C@H]2C(=O)NC(CO)c2cc(Cl)cc(Cl)c2)c2ccccc21` (stereo partly drawn) [Example 70, (2S,4S)-4-Amino-pyrrolidine-1,2-dicarboxylic acid 1-[(1-carbamoyl-1H-indol-3-yl)-amide] 2-{[1-(3,5-dichloro-phenyl)-2-hydroxy-ethyl]-amide}] gave an IC50 of 2.58 µM.
`NC(=O)n1cc(NC(=O)N2C[C@@H](N)C[C@H]2C(=O)NC(CCO)c2cccc(Cl)c2)c2ccccc21` (stereo partly drawn) [Example 71, (2S,4S)-4-Amino-pyrrolidine-1,2-dicarboxylic acid 1-[(1-carbamoyl-1H-indol-3-yl)-amide] 2-{[1-(3-chloro-phenyl)-3-hydroxy-propyl]-amide}] gave an IC50 of 2.9 µM.
`NC(=O)n1cc(NC(=O)N2C[C@@H](N)C[C@H]2C(=O)NC2(c3ccccc3)CC2)c2ccccc21` [Example 72, (2S,4S)-4-Amino-pyrrolidine-1,2-dicarboxylic acid 1-[(1-carbamoyl-1H-indol-3-yl)-amide] 2-[(1-phenyl-cyclopropyl)-amide]] showed an IC50 of 7 µM.
In the case of `NC(=O)n1cc(NC(=O)N2C[C@@H](N)C[C@H]2C(=O)NC(c2ccccc2)c2ccccc2)c2ccccc21` [Example 73, (2S,4S)-4-Amino-pyrrolidine-1,2-dicarboxylic acid 2-benzhydryl-amide 1-[(1-carbamoyl-1H-indol-3-yl)-amide]], the IC50 is reported as 0.325 µM.
For `NC(=O)n1cc(NC(=O)N2C[C@@H](N)C[C@H]2C(=O)NCC2CCCCC2)c2ccccc21` [Example 74, (2S,4S)-4-Amino-pyrrolidine-1,2-dicarboxylic acid 1-[(1-carbamoyl-1H-indol-3-yl)-amide] 2-cyclohexylmethyl-amide], the IC50 was 3.65 µM.
In the case of `NC(=O)n1cc(NC(=O)N2C[C@@H](N)C[C@H]2C(=O)NC[C@@H]2CCCC[C@@H]2O)c2ccccc21` [Example 76, (2S,4S)-4-Amino-pyrrolidine-1,2-dicarboxylic acid 1-[(1-carbamoyl-1H-indol-3-yl)-amide] 2-[((1S,2S)-2-hydroxy-cyclohexylmethyl)-amide]], the IC50 is reported as 15.7 µM.
Work on `NC(=O)n1cc(NC(=O)N2C[C@@H](N)C[C@H]2C(=O)NC2CCCCC2)c2ccccc21` [Example 77, (2S,4S)-4-Amino-pyrrolidine-1,2-dicarboxylic acid 1-[(1-carbamoyl-1H-indol-3-yl)-amide] 2-cyclohexylamide] yielded an IC50 of 14.6 µM.
Work on `NC(=O)n1cc(NC(=O)N2C[C@@H](N)C[C@H]2C(=O)NC2CCCN(c3ccccn3)C2)c2ccccc21` (stereo partly drawn) [Example 78, (2S,4S)-4-Amino-pyrrolidine-1,2-dicarboxylic acid 1-[(1-carbamoyl-1H-indol-3-yl)-amide] 2-[(3,4,5,6-tetrahydro-2H-[1,2′]bipyridinyl-3-yl)-amide]] yielded an IC50 of 10.4 µM.
Compound `NC(=O)n1cc(NC(=O)N2C[C@@H](N)C[C@H]2C(=O)NC2CCc3ccc(Cl)cc32)c2ccccc21` (stereo partly drawn) [Example 79, (2S,4S)-4-Amino-pyrrolidine-1,2-dicarboxylic acid 1-[(1-carbamoyl-1H-indol-3-yl)-amide] 2-[(6-chloro-indan-1-yl)-amide]] has an IC50 of 6 µM.
